According to US20170260178A1 (SPERO GYRASE, INC., priority 2012, published 2017):

Key:
[1] = system: S. pyogenes (ATCC 51339); test: Bacterial assay: MIC against S. pyogenes; format: cell-based, Streptococcus pyogenes; conditions: Streptococcus pyogenes, ATCC51339, read-out: minimal inhibitory concentration (MIC)
[2] = system: H. influenzae (ATCC 49247); test: Bacterial assay: MIC against H. influenzae; format: cell-based; conditions: Haemophilus influenzae, ATCC49247; H. influenzae ATCC 49247; read-out: minimal inhibitory concentration (MIC)
[3] = system: S. aureus (ATCC 29213); test: Bacterial assay: MIC against S. aureus; format: cell-based, Staphylococcus aureus; conditions: Staphylococcus aureus, ATCC29213, read-out: minimal inhibitory concentration (MIC)

Structure (SMILES)	MIC [1] [µg/mL]	MIC [2] [µg/mL]	MIC [3] [µg/mL]
CCNC(=O)Nc1nc2cc(-c3cnc(C4(O)CCS(=O)(=O)CC4)nc3)cc(-c3ccccn3)c2s1 [Compound 173, 1-ethyl-3-[5-[2-(4-hydroxy-1,1-dioxo-thian-4-yl)pyrimidin-5-yl]-7-(2-pyridyl)-1,3-benzothiazol-2-yl]urea]	≤ 1	≤ 2	≤ 1
CCNC(=O)Nc1nc2cc(-c3cnc(C4(O)CCCC4)nc3)cc(-c3ccccn3)c2s1 [Compound 119, 1-ethyl-3-[5-[2-(1-hydroxycyclopentyl)pyrimidin-5-yl]-7-(2-pyridyl)-1,3-benzothiazol-2-yl]urea]	≤ 1	≤ 2	≤ 1
CCNC(=O)Nc1nc2cc(-c3cnc([C@@H](C)O)nc3)cc(-c3ccccn3)c2s1 [Compound 22, 1-ethyl-3-[5-[2-[(1R)-1-hydroxyethyl]pyrimidin-5-yl]-7-(2-pyridyl)-1,3-benzothiazol-2-yl]urea]	≤ 1	≤ 2	≤ 1
CCNC(=O)Nc1nc2cc(-c3cnc(C(C)O)nc3)cc(-c3cc(CN4CC5(COC5)C4)ccn3)c2s1 (stereo not drawn) [Compound 73, 1-ethyl-3-[5-[2-(1-hydroxyethyl)pyrimidin-5-yl]-7-[4-(6-oxa-2-azaspiro[3.3]heptan-2-ylmethyl)-2-pyridyl]-1,3-benzothiazol-2-yl]urea]	≤ 1	≤ 2	≤ 1
CCNC(=O)Nc1nc2cc(-c3cnc(C(C)O)nc3)cc(-c3cc(OCCOC)ccn3)c2s1 (stereo not drawn) [Compound 92, 1-ethyl-3-[5-[2-(1-hydroxyethyl)pyrimidin-5-yl]-7-[4-(2-methoxyethoxy)-2-pyridyl]-1,3-benzothiazol-2-yl]urea]	≤ 1	≤ 2	≤ 1
CCNC(=O)Nc1nc2cc(-c3cnc(C(C)O)nc3)cc(-c3ncccn3)c2s1 (stereo not drawn) [Compound 115, 1-ethyl-3-[5-[2-(1-hydroxyethyl)pyrimidin-5-yl]-7-pyrimidin-2-yl-1,3-benzothiazol-2-yl]urea]	≤ 1	≤ 2	≤ 1
CCNC(=O)Nc1nc2cc(-c3cnc(C(O)CC)nc3)cc(-c3ccccn3)c2s1 (stereo not drawn) [Compound 59, 1-ethyl-3-[5-[2-(1-hydroxypropyl)pyrimidin-5-yl]-7-(2-pyridyl)-1,3-benzothiazol-2-yl]urea]	≤ 1	≤ 2	≤ 1
CNC(=O)Nc1nc2cc(-c3cnc(C(C)(C)O)nc3)cc(-c3ccccn3)c2s1 [Compound 82, 1-[5-[2-(1-hydroxy-1-methyl-ethyl)pyrimidin-5-yl]-7-(2-pyridyl)-1,3-benzothiazol-2-yl]-3-methyl-urea]	≤ 1	≤ 2	≤ 1
CCNC(=O)Nc1nc2cc(-c3cnc(C(O)CN4CCOCC4)nc3)cc(-c3ccccn3)c2s1 (stereo not drawn) [Compound 81, 1-ethyl-3-[5-[2-(1-hydroxy-2-morpholino-ethyl)pyrimidin-5-yl]-7-(2-pyridyl)-1,3-benzothiazol-2-yl]urea]	≤ 1	≤ 2	≤ 1
CCNC(=O)Nc1nc2cc(-c3cnc(C4(O)COC4)nc3)cc(-c3ccccn3)c2s1 [Compound 113, 1-ethyl-3-[5-[2-(3-hydroxyoxetan-3-yl)pyrimidin-5-yl]-7-(2-pyridyl)-1,3-benzothiazol-2-yl]urea]	≤ 1	≤ 2	≤ 1
CCNC(=O)Nc1nc2cc(-c3cnc(C(C)(C)O)nc3)cc(-c3cc(CNC4CC4)ccn3)c2s1 [Compound 53, 1-[7-[4-[(cyclopropylamino)methyl]-2-pyridyl]-5-[2-(1-hydroxy-1-methyl-ethyl)pyrimidin-5-yl]-1,3-benzothiazol-2-yl]-3-ethyl-urea]	≤ 1	≤ 2	≤ 1
CCNC(=O)Nc1nc2cc(-c3cnc(C(C)(C)O)nc3)cc(-c3cnccn3)c2s1 [Compound 39, 1-ethyl-3-[5-[2-(1-hydroxy-1-methyl-ethyl)pyrimidin-5-yl]-7-pyrazin-2-yl-1,3-benzothiazol-2-yl]urea]	≤ 1	≤ 2	≤ 1
